Test results as given in patent US11479551B2, “MTA-cooperative PRMT5 inhibitors” (Mirati Therapeutics, Inc., priority 2019, dated 2022).
Like-named read-outs stand apart in the source and are kept apart here.

Columns and labels:
[1] = tested on: HCT116 homozygous MTAP knockout cells; assay: Proliferation assay (CellTiter-Glo, 10 days of treatment), HCT116 MTAP knockout; assay type: cell-based; settings: read-out: Proliferation HCT116MTAP_KO IC50
Experimental: (§1) 1. HCT116 MTAP Knockout Model
(§2) HCT116 cells were genetically engineered to knock out the function of both MTAP alleles using a CRISPR/Cas9 system and an sgRNA targeting the MTAP gene. Following Cas9/MTAP sgRNA transduction, clones were screened to confirm that each allele of the MTAP gene had been inactivated (i.e., homozygous MTAP knock out) creating an MTAP-deficient cell.
(§3) Control samples were analyzed in parallel.
Briefly, on Day 0, 250 HCT116 parental or HCT116 homozygous MTAP knockout cell were seeded in 96 well plates in McCoy's 5A supplemented with 10% fetal bovine serum and pen/strep and the cells were incubated overnight at 37° C. plus 5% CO2.
The following day, cells were treated with DMSO vehicle control or a dose response of PRMT5 inhibitors and incubated at 37 C plus 5% CO2 for five days. On Day 6, the cells were trypsinized and split 1:10 into new 96-well plates with fresh medium containing the same concentration of PRMT5 inhibitor and incubated for an additional 5 days at 37° C. plus 5% CO^2.
On Day 11, the viability of the cells was measured using a CTG assay kit (CellTiter-Glo; Promega cat.no G7573) in accordance with the manufacturer's instructions. The IC50 values for each compound after 10 days of treatment were calculated using GraphPad PRISM software.

[2] = tested on: PRMT5-dependent Symmetric Di-methyl Arginine signal in HCT116 homozygous MTAP knockout cells; assay: SYM11 In-Cell Western, HCT116 MTAP knockout; assay type: cell-based; settings: HCT116 homozygous MTAP knockout cells, 4 days of treatment, SYM11/DRAQ5 ratio, read-out: In-cell-Western (SYM11) HCT116 MTAP_KO IC50
Experimental: as §1, §2, §3
Briefly, on Day 0, 2,000 HCT116 parental or HCT116 homozygous MTAP knockout cells were seeded in 96 well plates in McCoy's 5A supplemented with 10% fetal bovine serum and pen/strep and the cells were incubated overnight at 37° C. plus 5% CO2. The following day, cells were treated with DMSO vehicle control or a dose response of PRMT5 inhibitors, and incubated at 37° C. plus 5% CO^2 for four days.
After 4 days of treatment, the cells were fixed by adding 50 μl of 4% paraformaldehyde solution to each well and the cells were incubated for 20 min at room temperature. The paraformaldehyde solution was removed, 150 μl of ice-cold methanol was added and the plate was placed −20° C. for 10 minutes. The methanol was removed, 150 μl of Odyssey Blocking buffer+0.05% Tween20 was added and the plate was incubated at room temperature with shaking for one hour.
The primary SYM11 antibody solution was removed by aspiration and the wells were washed three consecutive times with phosphate buffered saline containing 0.1% Tween-20 (PBST).
The secondary antibody solution was removed by aspiration and the wells were washed three consecutive times with PB ST.
The SYM11 signal and the DRAQ5 signal were quantified using a Li-Cor Odyssey machine reading at […], respectively. The SYM11/DRAQ5 ratio was used to calculate the inhibition of Symmetric Dimethyl Arginine as percent of DMSO control.

PRMT5/MEP50 complex = PRMT5/MEP50 complex (Homo sapiens (Human), UniProt O14744); assay: PRMT5:MEP50 HotSpot Assay (full-length histone H2A substrate, plus and minus MTA); assay type: biochemical; settings: in the presence of 2 μM MTA
Method in brief: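 Tritium incorporated into recombinant full-length histone H2A was counted by scintillation after stopped reactions were captured on filter paper.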

Chain of PRMT5/MEP50 complex (O14744 2-637): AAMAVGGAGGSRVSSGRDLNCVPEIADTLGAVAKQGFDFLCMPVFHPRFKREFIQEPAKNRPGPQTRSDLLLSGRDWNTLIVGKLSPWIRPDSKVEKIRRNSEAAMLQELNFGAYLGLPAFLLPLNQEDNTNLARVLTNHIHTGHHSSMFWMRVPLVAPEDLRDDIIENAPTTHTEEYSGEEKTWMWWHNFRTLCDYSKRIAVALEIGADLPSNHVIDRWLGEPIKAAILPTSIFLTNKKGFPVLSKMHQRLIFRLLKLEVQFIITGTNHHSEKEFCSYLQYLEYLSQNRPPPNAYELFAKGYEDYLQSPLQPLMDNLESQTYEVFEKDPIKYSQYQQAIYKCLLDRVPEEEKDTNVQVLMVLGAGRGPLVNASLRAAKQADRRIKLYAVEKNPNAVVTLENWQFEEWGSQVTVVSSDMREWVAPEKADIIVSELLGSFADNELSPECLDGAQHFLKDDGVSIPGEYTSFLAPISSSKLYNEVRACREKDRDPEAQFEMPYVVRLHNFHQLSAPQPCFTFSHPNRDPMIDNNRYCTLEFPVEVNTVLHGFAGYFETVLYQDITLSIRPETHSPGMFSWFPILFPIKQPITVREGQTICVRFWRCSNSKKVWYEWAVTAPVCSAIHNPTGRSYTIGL
Chain of PRMT5/MEP50 complex (Q9BQA1 2-342 partner): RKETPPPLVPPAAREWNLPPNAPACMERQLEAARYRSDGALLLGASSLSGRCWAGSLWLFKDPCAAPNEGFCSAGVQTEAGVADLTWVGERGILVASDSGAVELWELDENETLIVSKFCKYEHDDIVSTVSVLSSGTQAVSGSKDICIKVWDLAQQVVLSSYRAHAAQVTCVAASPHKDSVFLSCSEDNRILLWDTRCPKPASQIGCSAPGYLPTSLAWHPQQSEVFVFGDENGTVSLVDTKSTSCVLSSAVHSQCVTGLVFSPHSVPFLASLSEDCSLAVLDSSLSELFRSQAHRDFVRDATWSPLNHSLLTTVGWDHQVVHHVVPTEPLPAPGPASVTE

IC50 [1] [nM] | IC50 [2] [nM] | IC50 (PRMT5/MEP50 complex; IC50 + 2 μM MTA) [nM] | IC50 (PRMT5/MEP50 complex; read-out: IC50 + 2 μM MTA) [nM] | IC50 ([1]; Homo sapiens, HCT-116, 240 h) [nM] | IC50 ([2]; Homo sapiens, HCT-116, 96 h) [nM] | SMILES
2850 | 272 |  | 994 |  |  | Cn1ncc(-c2ccc3c(=O)[nH]nc(CN)c3c2)c1-c1c(C#N)cc2ccccc2c1Cl (single isomer, unassigned) [Example 16-5]
64 | 20 |  | 28 |  |  | Cn1ncc(-c2ccc3c(=O)[nH]nc(CN)c3c2)c1-c1c(C#N)cc2ccccc2c1Cl (single isomer, unassigned) [Example 16-6]
 |  | 176 |  | 4370 | 436 | Cn1ncc(-c2ccc3c(=O)[nH]nc(CN)c3c2)c1-c1ccc(-c2cnsc2)cc1C#N [Example 12-4, 2-[4-[4-(aminomethyl)-1-oxo-2H-phthalazin-6-yl]-2-methyl-pyrazol-3-yl]-5-isothiazol-4-yl-benzonitrile]
 |  | 112 |  | 3170 | 456 | Cn1cc(-c2ccc(-c3c(-c4ccc5c(=O)[nH]nc(CN)c5c4)cnn3C)c(C#N)c2)cn1 [Example 12-5, 2-(4-(4-(aminomethyl)-1-oxo-1,2-dihydrophthalazin-6-yl)-1-methyl-1H-pyrazol-5-yl)-5-(1-methyl-1H-pyrazol-4-yl)benzonitrile]
 |  | 730 |  | 7470 | 380 | Cn1cc(-c2ccc(C#N)c(-c3c(-c4ccc5c(=O)[nH]nc(CN)c5c4)cnn3C)c2)cn1 [Example 12-6, 2-[4-[4-(aminomethyl)-1-oxo-2H-phthalazin-6-yl]-2-methyl-pyrazol-3-yl]-4-(1-methylpyrazol-4-yl)benzonitrile]
 |  | 603 |  | 4980 | 427 | Cn1ncc(-c2ccc3c(=O)[nH]nc(CN)c3c2)c1-c1cc(-c2cnsc2)ccc1C#N [Example 12-7, 2-(4-(4-(aminomethyl)-1-oxo-1,2-dihydrophthalazin-6-yl)-1-methyl-1H-pyrazol-5-yl)-4-(isothiazol-4-yl)benzonitrile]
73 | 0.4 |  |  | 75 | 0.5 | COc1cc2ccccc2c(C#N)c1-c1c(-c2ccc3c(=O)[nH]nc(CN)c3c2)cnn1C [Example 12-16, 2-[4-[4-(aminomethyl)-1-oxo-2H-phthalazin-6-yl]-2-methyl-pyrazol-3-yl]-3-methoxy-naphthalene-1-carbonitrile]
 |  |  |  | 85 | 10 | Cc1cnc2ccc(-c3c(-c4ccc5c(=O)[nH]nc(CN)c5c4)cnn3C)c(C#N)c2c1 [Example 12-17, 6-[4-[4-(aminomethyl)-1-oxo-2H-phthalazin-6-yl]-2-methyl-pyrazol-3-yl]-3-methyl-quinoline-5-carbonitrile]
 |  |  |  | 104 | 10 | Cc1cc(OC2CC2)c(C#N)c(-c2c(-c3ccc4c(=O)[nH]nc(CN)c4c3)cnn2C)c1 [Example 12-18, 2-(4-(4-(aminomethyl)-1-oxo-1,2-dihydrophthalazin-6-yl)-1-methyl-1H-pyrazol-5-yl)-6-cyclopropoxy-4-methylbenzonitrile]
 |  |  |  | 149 | 64 | CCOc1cc(-c2cnn(C)c2-c2ccc3ccccc3c2C#N)cc2c(CN)n[nH]c(=O)c12 [Example 13-2, 2-[4-[4-(aminomethyl)-8-ethoxy-1-oxo-2H-phthalazin-6-yl]-2-methyl-pyrazol-3-yl]naphthalene-1-carbonitrile]
 |  |  |  | 565 | 298 | CCOc1cc2ccccc2c(C#N)c1-c1c(-c2cc(OCC)c3c(=O)[nH]nc(CN)c3c2)cnn1C [Example 13-3, 2-[4-[4-(aminomethyl)-8-ethoxy-1-oxo-2H-phthalazin-6-yl]-2-methyl-pyrazol-3-yl]-3-ethoxy-naphthalene-1-carbonitrile]
 |  |  |  | 211 | 96 | CCc1cc(-c2cnn(C)c2-c2cccc(OC3CC3)c2C#N)cc2c(CN)n[nH]c(=O)c12 [Example 15-2, 2-(4-(4-(aminomethyl)-8-ethyl-1-oxo-1,2-dihydrophthalazin-6-yl)-1-methyl-1H-pyrazol-5-yl)-6-cyclopropoxybenzonitrile]

Continued, compound first:

SMILES | IC50 [1] [nM] | IC50 [2] [nM] | IC50 (PRMT5/MEP50 complex; IC50 + 2 μM MTA) [nM] | IC50 (PRMT5/MEP50 complex; read-out: IC50 + 2 μM MTA) [nM] | IC50 ([1]; Homo sapiens, HCT-116, 240 h) [nM] | IC50 ([2]; Homo sapiens, HCT-116, 96 h) [nM]
CC(N)c1n[nH]c(=O)c2ccc(-c3cnn(C)c3-c3cccc(Cl)c3C#N)cc12 (single isomer, unassigned) [Example 9-3, 2-[4-[4-(1-aminoethyl)-1-oxo-2H-phthalazin-6-yl]-2-methyl-pyrazol-3-yl]-6-chloro-benzonitrile] | 4820 | 141 | 1270 |  |  | 
Cn1ncc(-c2ccc3c(=O)[nH]nc(CN)c3c2)c1-c1ccc2ccccc2c1Cl [Example 4-181, 4-(aminomethyl)-6-(5-(1-chloronaphthalen-2-yl)-1-methyl-1H-pyrazol-4-yl)phthalazin-1(2H)-one] |  |  | 401 |  | 450 | 25
Cn1ncc(-c2ccc3c(=O)[nH]nc(CN)c3c2)c1CC(C#N)c1ccccc1 (centres unmarked) [Example 4-183, 3-(4-(4-(aminomethyl)-1-oxo-1,2-dihydrophthalazin-6-yl)-1-methyl-1H-pyrazol-5-yl)-2-phenylpropanenitrile] |  |  | 2770 |  | 897 | 324
Cn1ncc(-c2c(-c3ccc4c(=O)[nH]nc(CN)c4c3)cnn2C)c1Cl [Example 4-185, 4-(aminomethyl)-6-(5′-chloro-1′,2-dimethyl-1′H,2H-[3,4′-bipyrazol]-4-yl)phthalazin-1(2H)-one] |  |  | 1160 |  | 3020 | 167
Cn1ncc(-c2c(-c3ccc4c(=O)[nH]nc(CN)c4c3)cnn2C)c1C#N [Example 4-186, 4-(4-(aminomethyl)-1-oxo-1,2-dihydrophthalazin-6-yl)-1′,2-dimethyl-1′H,2H-[3,4′-bipyrazole]-5′-carbonitrile] |  |  | 2310 |  | 5780 | 5110
NCc1n[nH]c(=O)c2ccc(-c3cnc4ccc(-c5ccccc5)nn34)cc12 [Example 4-191, 4-(aminomethyl)-6-(6-phenylimidazo[1,2-b]pyridazin-3-yl)phthalazin-1(2H)-one] |  |  | 612 |  | 1520 | 911
Cn1ncc(-c2ccc3c(=O)[nH]nc(CN)c3c2)c1-c1cccc2c1COC2 [Example 4-220, 4-(aminomethyl)-6-(5-(1,3-dihydroisobenzofuran-4-yl)-1-methyl-1H-pyrazol-4-yl)phthalazin-1(2H)-one] |  |  | 567 |  | 5160 | 212
Cn1ncc(-c2ccc3c(=O)[nH]nc(CN)c3c2)c1-c1cccc2c1COCC2 [Example 4-221, 4-(aminomethyl)-6-(5-(isochroman-8-yl)-1-methyl-1H-pyrazol-4-yl)phthalazin-1(2H)-one] |  |  | 501 |  | 2380 | 196
Cn1ncc(-c2ccc3c(=O)[nH]nc(CN)c3c2)c1-c1cccc2ccncc12 [Example 4-222, 4-(aminomethyl)-6-(5-(isoquinolin-8-yl)-1-methyl-1H-pyrazol-4-yl)phthalazin-1(2H)-one] |  |  | 255 |  | 5340 | 296
Cn1ncc(-c2ccc3c(=O)[nH]nc(CN)c3c2)c1-c1ccc(OC2CC2)c2cncn12 [Example 4-238, 4-(aminomethyl)-6-(5-(8-cyclopropoxyimidazo[1,5-a]pyridin-5-yl)-1-methyl-1H-pyrazol-4-yl)phthalazin-1(2H)-one] |  |  | 2310 |  | 1940 | 843
Cn1ncc(-c2ccc3c(=O)[nH]nc([C@@H](N)C(F)F)c3c2)c1-c1ccc2ccccc2c1C#N [Example 9-7, 2-[4-[4-[(1R)-1-amino-2,2-difluoro-ethyl]-1-oxo-2H-phthalazin-6-yl]-2-methyl-pyrazol-3-yl]naphthalene-1-carbonitrile] |  |  | 2560 |  | > 10000 | > 1000
